What is called EC50 is the midpoint of the concentration-response curve.

Active and inactive are the calls of the source. The rule behind the calls is not given here.

The assay has as its target CRF-binding protein / CRF-R2 receptor complex (human). As to the kind of experiment: CRF-BP/CRF-R2 complex agonists, SAR follow-up, cell-based, 384-well (AID 651648). The note with it: cells expressing CRF-BP/CRF-R2 complex, agonist read-out.
As for `CC(C)c1nc2c(c(=O)c3ccccc3n2C)c(=O)n1CCc1ccccc1`, the EC50 is 7.24 µM.

Turning to `O=C(Nc1cc(S(=O)(=O)N2CCCCC2)ccc1O)c1ccccc1NS(=O)(=O)c1ccc(F)c(F)c1`, the EC50 was > 20 µM (inactive). As for `COc1ccc(C(=O)CSc2nnn(-c3cccc(NC(C)=O)c3)n2)cc1`, the EC50 is > 20 µM (inactive). With `Cc1sc(NC(=O)C2CCCCC2C(=O)O)c(C(N)=O)c1-c1ccc(C(C)(C)C)cc1` (centres undefined), the EC50 was 9.52 µM.

(Values after PubChem BioAssay AID651648 (Sanford-Burnham Center for Chemical Genomics, 2012).)
